According to BindingDB's records for patent US12258317 (Sunshine Lake Pharma Co., 2025):

Assays:
[1] = target: T1, Diamine oxidase [copper-containing] (Homo sapiens, UniProt P19801); assay: Inhibition of DAO (Diamine Oxidase)
T1 construct: gene AOC1
Protocol: Test purpose: The following method is used to determine the selective inhibitory activity of the compound of the present invention on DAO.Test Materials:Human recombinant DAO (Recombinant Human ABP-1/DAO) was purchased from R&D, Cat. No. 8298-AO;Amplex Red Hydrogen PeroxidePeroxidase Assay Kit was purchased from Invitrogen, Cat. No. A22188;1,4-Diaminobutane dihydrochloride was purchased from Aladdin, Cat. No. D106194-25G.Test Method:The test compound was dissolved in DMSO and diluted 5 times to a total of 6 concentrations. In a 384-well plate, 24 μL of human recombinant DAO (1 μg/mL) was added into each well. 1 μL of test compounds at different concentrations were added to each well containing human recombinant DAO, and the plate was incubated at 37° C. for 30 min. After incubating for 30 min, 25 μL of Amplex Red Hydrogen Peroxide Peroxidase Assay Kit (containing 100 μM Amplex Red and 0.2 U/ml HRP) containing 1 M 1,4-butanediamine dihydrochloride was added into the corresponding wells, and the plate was incubated in the dark at 37° C. for 30 min. After 30 min, PHERAstar FSX microplate reader of BMG LABTECH was used to read the fluorescence value (RFU) under excitation at 540 nm and emission at 580 nm.

[2] = target: T2, Amine oxidase [copper-containing] 3 (Homo sapiens, UniProt Q16853); assay: Inhibitory Activity of Human Recombinant SSAO/VAP-1
T2 sequence (Q16853 whole entry): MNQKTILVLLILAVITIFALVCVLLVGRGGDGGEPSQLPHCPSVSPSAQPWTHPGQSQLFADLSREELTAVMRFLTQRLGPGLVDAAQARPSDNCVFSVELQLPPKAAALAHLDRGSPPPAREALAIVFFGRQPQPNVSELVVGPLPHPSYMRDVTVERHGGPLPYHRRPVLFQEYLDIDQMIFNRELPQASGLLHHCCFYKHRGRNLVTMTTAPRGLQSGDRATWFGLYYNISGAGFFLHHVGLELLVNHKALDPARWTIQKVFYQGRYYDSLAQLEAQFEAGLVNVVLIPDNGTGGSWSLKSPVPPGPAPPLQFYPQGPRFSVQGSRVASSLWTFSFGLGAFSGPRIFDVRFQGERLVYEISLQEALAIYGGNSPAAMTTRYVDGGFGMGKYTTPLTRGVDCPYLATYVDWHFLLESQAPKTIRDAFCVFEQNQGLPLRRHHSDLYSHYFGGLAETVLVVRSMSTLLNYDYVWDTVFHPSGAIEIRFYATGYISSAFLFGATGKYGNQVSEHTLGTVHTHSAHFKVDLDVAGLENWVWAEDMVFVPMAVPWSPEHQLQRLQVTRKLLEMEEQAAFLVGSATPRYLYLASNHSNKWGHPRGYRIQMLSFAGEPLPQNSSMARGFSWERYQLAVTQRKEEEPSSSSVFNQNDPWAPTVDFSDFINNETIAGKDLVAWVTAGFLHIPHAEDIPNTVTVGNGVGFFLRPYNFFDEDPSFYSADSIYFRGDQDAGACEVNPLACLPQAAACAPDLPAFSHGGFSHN
Source text: Test purpose: The following method is used to determine the inhibitory activity of the compounds in the examples of the present invention on human recombinant SSAO/VAP-1.Test Materials:Human recombinant SSAO/VAP-1 (VAP-1, human) was purchased from Sigma, Cat. No. SRP6241;Amplex Red Monoamine Oxidase Assay Kit was purchased from Invitrogen, Cat. No. A12214;384-well plate was purchased from Corning, Cat. No. 6005174;Amplex Red Hydrogen PeroxidePeroxidase Assay Kit was purchased from Invitrogen, Cat. No. A22188.Benzylamine hydrochloride was purchased from Sigma, Cat. No. B5136-25G;DMSO (Dimethyl Sulfoxide) was purchased from Sigma, Cat. No. D2650-100ML;Test Method:The test compound was dissolved in DMSO and diluted 4 times to a total of 10 concentrations. In a 384-well plate, 25 μL of human recombinant SSAO/VAP-1 (1.6 μg/mL) was added into each well. 100 nL of test compounds at different concentrations were added to each well containing human recombinant SSAO/VAP-1, and the plate was incubated at room temperature for 30 min. […] After 60 min, PerkinElmer's Envision was used to read the fluorescence value (RFU) under excitation at 530-560 nm and emission at 590 nm.

T1 sequence (P19801 20-751 limits assumed): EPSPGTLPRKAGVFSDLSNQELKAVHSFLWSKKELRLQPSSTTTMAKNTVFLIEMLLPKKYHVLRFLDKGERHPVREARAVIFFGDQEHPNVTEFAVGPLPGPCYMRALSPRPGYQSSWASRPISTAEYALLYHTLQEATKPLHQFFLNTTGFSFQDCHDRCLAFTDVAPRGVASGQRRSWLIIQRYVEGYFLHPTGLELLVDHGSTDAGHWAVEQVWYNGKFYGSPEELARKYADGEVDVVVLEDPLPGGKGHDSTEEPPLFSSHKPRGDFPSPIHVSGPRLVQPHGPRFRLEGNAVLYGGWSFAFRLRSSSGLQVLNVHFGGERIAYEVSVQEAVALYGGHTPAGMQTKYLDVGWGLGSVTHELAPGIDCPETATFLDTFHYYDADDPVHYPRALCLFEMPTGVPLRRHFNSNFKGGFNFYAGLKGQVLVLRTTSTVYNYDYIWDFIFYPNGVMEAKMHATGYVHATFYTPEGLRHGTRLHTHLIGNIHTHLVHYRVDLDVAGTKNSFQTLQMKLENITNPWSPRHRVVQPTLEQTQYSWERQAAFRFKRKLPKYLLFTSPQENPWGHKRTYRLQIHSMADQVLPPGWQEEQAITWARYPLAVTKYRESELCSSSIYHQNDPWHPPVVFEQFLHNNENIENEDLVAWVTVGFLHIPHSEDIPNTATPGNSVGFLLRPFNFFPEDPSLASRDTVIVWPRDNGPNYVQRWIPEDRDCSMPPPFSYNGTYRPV

Row | IC50 [1] | IC50 [2] | Structure (SMILES)
1 | > 1000 nM | 6.29 nM | NC/C(=C\F)COc1ccc2c(c1)CCN(CC(N)=O)C2=O [US12258317, Example 1]
2 |  | 2.2 nM | NC/C(=C/F)COc1ccc2c(c1)CCN(CC(N)=O)C2=O [US12258317, Example 2]
